Experimental data reported in PubChem BioAssay (NCI).
Where “and” joins values, the source holds several entries; their conditions need not be identical. Equal entries are not always repeated.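 96-well plates; 48 h exposure; 5 concentrations. Endpoints by linear interpolation between flanking doses. Not reached: highest tested concentration assigned. GI50 is the concentration that inhibits growth by half. The concentration for full growth arrest is given as TGI.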

Experiments:
Assay in all cases: NCI tumour cell line growth inhibition, 48 h
[1] = system: U251 CNS
[2] = system: SR leukemia
[3] = system: SK-MEL-5 melanoma
[4] = system: HCC-2998 colon
[5] = system: HT29 colon
[6] = system: BT-549 breast
[7] = system: HOP-62 NSCLC
[8] = system: A549 NSCLC
[9] = system: MDA-MB-231 breast
[10] = system: NCI-H522 lung

With CC(C)C[C@H](NC(=O)[C@H](Cc1cccc2ccccc12)NC(=O)N1CCOCC1)B(O)O the GI50 [1] was 0.00196 µM, the TGI [1] was 0.0245 µM and 0.0429 µM and the GI50 [2] was 0.00276 µM. It also gave a TGI [2] of 0.013 µM, a TGI [3] of 0.00237 µM and a GI50 [4] of 0.00158 µM. For the same compound, the TGI [4] was 0.00302 µM, the GI50 [5] was 0.00131 µM and the TGI [5] was 0.00448 µM. The GI50 [6] was 0.00039 µM, the GI50 [7] was 0.00383 µM and the TGI [7] was 0.0137 µM and < 0.018 µM. For the same compound, the GI50 [8] was 0.00609 µM, the TGI [8] was 0.267 µM and the GI50 [9] was 0.00188 µM. It also gave a TGI [9] of 0.00398 µM.
With CN1CC2=C(OC(N)=C(C#N)C2c2cccs2)/C(=C/c2cccs2)C1 (configuration not stated) the TGI [1] was > 100 µM, the TGI [2] was > 100 µM and the TGI [3] was 14.4 µM. The TGI [4] was > 100 µM, the TGI [5] was > 78.3 µM and the TGI [6] was > 100 µM. The TGI [7] was 51.9 µM, the TGI [10] was > 53 µM and the TGI [8] was > 75.2 µM. For the same compound, the TGI [9] was > 100 µM.
COc1ccc(CCn2cnc3ccccc32)cc1 was tested, and the TGI [1] was > 100 µM, the TGI [2] was > 100 µM and the TGI [3] was > 100 µM. For the same compound, the TGI [4] was > 100 µM, the TGI [5] was > 100 µM and the TGI [6] was > 100 µM. For the same compound, the TGI [7] was > 100 µM, the TGI [10] was > 100 µM and the TGI [8] was > 100 µM. For the same compound, the TGI [9] was > 100 µM.
With N=C(N)SCCON1C(=O)c2ccccc2C1=O the TGI [1] was > 100 µM, the TGI [2] was > 100 µM and the TGI [3] was > 100 µM. The TGI [5] was > 100 µM, the TGI [6] was > 100 µM and the TGI [7] was > 100 µM. The TGI [10] was > 100 µM, the TGI [8] was > 100 µM and the TGI [9] was > 100 µM.
In the case of OC(C1CCC=NN1C(O)(C(F)(F)F)C(F)(F)F)(C(F)(F)F)C(F)(F)F (configuration not stated), the TGI [1] is reported as > 10 µM, the TGI [2] is reported as > 10 µM and the TGI [3] is reported as > 10 µM. For the same compound, the TGI [4] was > 10 µM, the TGI [5] was > 10 µM and the TGI [6] was > 10 µM. The TGI [7] was > 10 µM, the TGI [10] was > 10 µM and the TGI [8] was > 10 µM. The TGI [9] was > 10 µM.
For CC(C)Oc1c(-c2c(OC(C)C)c(=O)c2=O)c(=O)c1=O, the TGI [1] was > 59.9 µM, the TGI [2] was > 100 µM and the TGI [3] was > 61.8 µM. The TGI [4] was > 100 µM, the TGI [5] was > 58.3 µM and the TGI [6] was > 61.3 µM. The TGI [7] was > 85.2 µM, the TGI [10] was > 27.7 µM and the TGI [8] was > 100 µM. The TGI [9] was > 57.2 µM.
In the case of S=C1c2ccccc2NC(=NC2CCCC2)C2CSCN12 (configuration not stated), the TGI [1] is reported as > 100 µM, the TGI [2] is reported as > 100 µM and the TGI [3] is reported as > 100 µM. The TGI [4] was > 100 µM, the TGI [5] was > 100 µM and the TGI [6] was > 100 µM. For the same compound, the TGI [7] was > 100 µM, the TGI [10] was > 100 µM and the TGI [8] was > 100 µM. The TGI [9] was > 100 µM.
In the case of CC1=NOC2(C1)/C(=N/O)CCC/C2=N\O (configuration not stated), the TGI [1] is reported as > 100 µM, the TGI [2] is reported as > 100 µM and the TGI [3] is reported as > 100 µM. For the same compound, the TGI [4] was > 100 µM, the TGI [5] was > 100 µM and the TGI [6] was > 100 µM. The TGI [7] was > 100 µM, the TGI [10] was > 100 µM and the TGI [8] was > 100 µM. The TGI [9] was > 100 µM.
Compound O=[N+]([O-])c1cccc(-c2csc(N=Nc3c(O)[nH]c4ccccc34)n2)c1 has a TGI [1] of 40.4 µM, a TGI [2] of 96.9 µM and a TGI [3] of 49.9 µM. The TGI [4] was 32 µM, the TGI [5] was 44.5 µM and the TGI [6] was > 100 µM. The TGI [7] was 59.6 µM, the TGI [10] was 36.6 µM and the TGI [8] was 44 µM. The TGI [9] was 39.5 µM.
With Brc1ccc(N=NN2CCCCC2)cc1 the TGI [1] was > 100 µM, the TGI [2] was 41.7 µM and the TGI [3] was > 100 µM. For the same compound, the TGI [6] was > 100 µM, the TGI [7] was > 100 µM and the TGI [10] was > 100 µM. The TGI [9] was > 100 µM.
